Results as given in US6903132B2, “Non-peptide GnRH agents, pharmaceutical compositions and methods for their use” (Agouron Pharmaceuticals, Inc., priority 2002, dated 2005).

Experiments:
human GnRH receptors = target: T1, human GnRH receptors (Homo sapiens, UniProt P30968); assay: Radioligand binding assay: inhibition of binding of 125I-GnRH-A to GnRH receptors (membranes); details: Human GnRH receptor; competition with 125I-GnRH-A; Ki calculated from IC50 (Cheng et al.)
T1 construct: expressed in transfected cells; host or cells: HEK 293
T1 sequence (P30968 1-328): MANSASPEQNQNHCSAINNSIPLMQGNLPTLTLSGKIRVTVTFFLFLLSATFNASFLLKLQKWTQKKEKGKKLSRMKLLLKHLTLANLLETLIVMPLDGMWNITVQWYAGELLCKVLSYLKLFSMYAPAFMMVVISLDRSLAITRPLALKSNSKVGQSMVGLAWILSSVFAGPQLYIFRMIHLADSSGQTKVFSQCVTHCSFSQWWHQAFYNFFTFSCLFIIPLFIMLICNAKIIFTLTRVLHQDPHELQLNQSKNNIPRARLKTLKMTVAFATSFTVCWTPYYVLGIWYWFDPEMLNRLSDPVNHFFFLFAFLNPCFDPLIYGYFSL
Description: (§1) HEK 293 cells stably transfected with mouse or human GnRH receptors as described above are grown in Dulbecco's high-glucose, modified Eagle's medium (DMEM) supplemented with 0.2% G418, 10% fetal bovine serum (FBS) and 100U/mL penicillin/streptomycin. GH3 cells stably transfected with the rat GnRH receptor (GGH3) were provided by Dr. William Chin (Harvard Medical School, Boston, Mass.). These cells are extensively characterized previously (Kaiser et al., 1997). The cells are grown in low glucose DMEM containing: 100U/mL penicillin/streptomycin, 0.6% G418 and 10% heat-inactivated FBS.
(§2) HEK 293 cells containing mouse or human receptors, or rat pituitaries (Pel Freez Biologicals, Rogers, Ark.) are homogenized in buffer A containing: 50 mM Tris (pH 7.4), 0.32 M sucrose, 2 mM EGTA, 1 mM PMSF, 5 μg/ml aprotinen, 5 μg/ml Pepstatin A, and 1 μg/ml leupeptin. Homogenized cells are centrifuged at 4° C. at 20,000×g for 25 minutes, re-suspended in buffer A and re-centrifuged at 4° C. at 20,000×g for an additional 25 minutes. Total membrane protein was determined with a BCA kit (Pierce, Rockford, Ill.). Membranes are stored at −70° C. at a final membrane protein concentration of approximately 5 mg/ml.
(§3) The radioiodinated agonist analog of GnRH, [des-Gly^10, D-Ala^6]GnRH ethylamide (^125I-GnRH-A), is used as the radioligand. One μg of GnRH-A diluted in 0.5 M phosphate buffer (pH 7.4) is added to an lodogen®-coated borosilicate glass tube (Pierce, Rockford, Ill.) containing 35 μl of 0.05 M phosphate buffer (pH 7.4-7.6) and 1 mCi of Na[^125I]. The reaction mixture is vortexed and incubated for 1 minute at room temperature. After one minute, the mixture is vortexed and allowed to incubate for an additional minute. 2 ml of 0.5 M acetic acid/1% BSA is added to the reaction tube and the mixture is added to a C18 Sep-Pak cartridge. The cartridge is washed with subsequent washes of 5 ml H2O and 5 ml 0.5 M acetic acid and then eluted with 5×1 ml of 60%CH3CN/40% 0.5 M acetic acid. The eluate is diluted with 3× volume of HPLC buffer A (0.1% TFA in H2O) and loaded onto a C18 column. The iodinated product is eluted over 20-25 min with a gradient of 25-100% CH3CN containing 0.1% TFA. The radioactive fractions (750 μl/fraction) are collected into clean polypropylene tubes containing 100 μl of 10% BSA. Fractions are assessed for biological activity by radiolig and binding. Specific activity of the radioligand was approximately 2200 Ci/mmol.
(§4) Membranes are diluted to 0.01-0.5 mg/ml (depending upon the species of receptor) with assay buffer containing 50 mM HEPES (pH 7.4), 1 mM EDTA, 2.5 mM MgCl2, and 0.1% BSA. Membranes (diluted to utilize similar receptor numbers between assays) are incubated with approximately 0.04-0.06 nM ^125I-GnRH-A in the presence or absence of competing agents (0.1-10,000 nM) in a total volume of 200 μl in 96-well polypropylene plates for 1 hour at room temperature. Assays are stopped by rapid filtration onto 96-well GF/C filters soaked in 0.1% polyethylenimine (PEI) utilizing a Packard 96-well cell harvester. Filters are washed three times with ice-cold PBS (50 mM NaPO4, 0.9% NaCl, 2 mM MgCl2, and 0.02% NaN3, pH 7.4). 35 μl of scintillation cocktail is added to each filter well and filters are counted on a Packard Topcount. Control dose-response curves are generated to GnRH (0.1 nM-100 nM) in each competition binding experiment. Ki values were calculated from IC50 values according to Cheng et al., Biochemical Pharmacol. 22: 3099-3108, 1973. [formula]

rat GnRH receptor = target: T2, rat GnRH receptor (Rattus norvegicus, UniProt P30969); assay: as above; details: competition with 125I-GnRH-A, Ki calculated from IC50 (Cheng et al.)
T2 construct: rat pituitaries (Pel Freez Biologicals, Rogers, Ark.) are homogenized in buffer A; tissue Pel Freez Biologicals; host or cells: rat pituitaries
T2 sequence (P30969 1-327): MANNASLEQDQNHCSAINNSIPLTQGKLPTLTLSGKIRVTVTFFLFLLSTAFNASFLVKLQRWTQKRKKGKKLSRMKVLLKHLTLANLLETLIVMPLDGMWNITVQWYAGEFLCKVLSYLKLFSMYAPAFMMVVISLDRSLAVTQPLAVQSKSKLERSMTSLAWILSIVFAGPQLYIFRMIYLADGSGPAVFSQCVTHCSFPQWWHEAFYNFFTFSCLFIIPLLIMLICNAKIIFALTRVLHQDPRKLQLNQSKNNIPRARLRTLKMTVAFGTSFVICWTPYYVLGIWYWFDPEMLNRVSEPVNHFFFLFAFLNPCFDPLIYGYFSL
Description: as §1, §2, §3, §4

SMILES | Ki (human GnRH receptors) [nM] | Ki (rat GnRH receptor) [nM]
Cc1cc2c(cc1Oc1ccc(C(=O)NNc3ccc4ccccc4n3)o1)C(C)(C)C(C)C2(C)C (centres unmarked) [Example M3, 5-(1,1,2,3,3,6-Hexamethyl-indan-5-yloxy)-furan-2-carboxylic acid N′-quinolin-2-yl-hydrazide] | 4.1 | 2.9
Cc1cc2c(cc1Cc1ccc(C(=O)NNc3ccc4ccccc4n3)o1)C(C)(C)OC2(C)C [Example E4, 5-(1,1,3,3,6-Pentamethyl-1,3-dihydro-isobenzofuran-5-ylmethyl)-furan-2-carboxylic acid N′-quinolin-2-yl-hydrazide] | 24 | 23
Cc1cc2c(cc1Oc1ccc(C(=O)NNc3ccc4ccccc4n3)o1)C(C)(C)OC2 [Example N3, 5-(3,3,6-Trimethyl-1,3-dihydro-isobenzofuran-5-yloxy)-furan-2-carboxylic acid N′-quinolin-2-yl-hydrazide] | 130 | 100
Cc1cc2c(cc1Oc1ccc(C(=O)NNc3ccc(C(F)(F)F)cn3)o1)C(C)(C)C(C)C2(C)C (centres unmarked) [Example M2, 5-(1,1,2,3,3,6-Hexamethyl-indan-5-yloxy)-furan-2-carboxylic acid N′-(5-trifluoromethyl-pyridin-2-yl)-hydrazide] | 19 | 29
Cc1cc2c(cc1Cc1ccc(C(=O)NNc3cc(C)c4c(C)nn(C)c4n3)o1)C(C)(C)CCC2 [Example J26, 5-(3,8,8-Trimethyl-5,6,7,8-tetrahydro-naphthalen-2-ylmethyl)-furan-2-carboxylic acid N′-(1,3,4-trimethyl-1H-pyrazolo[3,4-b]pyridin-6-yl)-hydrazide] | 1.6 | 17
Cc1c(C)c(Cc2ccc(C(=O)NNc3cc(C)c4c(C)nn(C)c4n3)o2)c(C)c(Cc2ccc(C(=O)NNc3cc(C)c4c(C)nn(C)c4n3)o2)c1C [Example J29, 3-(2,3,4,6-Tetramethyl-5-{5-[N′-(1,3,4-trimethyl-1H-pyrazolo[3,4-b]pyridin-6-yl)-hydrazinocarbonyl]-furan-2-ylmethyl}-benzyl)-furan-1-carboxylic acid N′-(1,3,4-trimethyl-1H-pyrazolo[3,4-b]pyridin-6-yl)-hydrazide] | 5230 | –
Cc1cc2c(c(Br)c1Oc1ccc(C(=O)NNc3cc(C)c4c(C)nn(C)c4n3)o1)C(C)(C)CC2 [Example I22, 5-(4-Bromo-3,3,6-trimethyl-indan-5-yloxy)-furan-2-carboxylic acid N′-(1,3,4-trimethyl-1H-pyrazolo[3,4-b]pyridin-6-yl)-hydrazide] | 10 | 52
CCN(CC)C(=O)c1ccc(C)c(Oc2ccc(C(=O)NNc3cc(C)c4c(C)nn(C)c4n3)o2)c1 [Example H1, N,N-diethyl-4-methyl-3-[(5-{[2-(1,3,4-trimethyl-1H-pyrazolo[3,4-b]pyridin-6-yl)hydrazino]carbonyl}-2-furyl)oxy]benzamide] | 5600 | –
Cc1cc(O)ccc1Cc1ccc(C(=O)NNc2cc(C)c3c(C)nn(C)c3n2)o1 [Example J21, 5-(4-Hydroxy-2-methylbenzyl)-N′-(1,3,4-trimethyl-1H-pyrazolo[3,4-b]pyridin-6-yl)-2-furohydrazide] | ≥ 10000 | –
Cc1cc(NNC(=O)c2ccc(Cc3cc4c(cc3C(C)C)C(C)(C)CCC4(C)C)o2)nc2c1c(C)nn2C [Example C3, 5-[(3-lsopropyl-5,5,8,8-tetramethyl-5,6,7,8-tetrahydro-2-naphthalenyl)methyl]-N′-(1,3,4-trimethyl-1H-pyrazolo[3,4-b]pyridin-6-yl)-2-furohydrazide] | 300 | –
Cc1cc(C)c(Cc2ccc(C(=O)NNc3cc(C)c4c(C)nn(C)c4n3)o2)c(C)c1 [Example J3, 5-(Mesitylmethyl)-N′-(1,3,4-trimethyl-1H-pyrazolo[3,4-b]pyridin-6-yl)-2-furohydrazide] | 400 | –
Cc1ccc(N(C)NC(=O)c2ccc(Oc3cc4c(cc3C)C(C)(C)C(C)CC4(C)C)o2)nn1 (centres unmarked) [Example I16, 5-(3,5,5,6,8,8-Hexamethyl-5,6,7,8-etrahydro-naphthalen-2-yloxy)-furan-2-carboxylic acid N′-methyl-N′-(6-methyl-pyridazin-3-yl)-hydrazide] | 9 | 18
Cc1cc2c(cc1Oc1ccc(C(=O)NNc3ncnc4scc(C)c34)o1)C(C)(C)CC(C)C2(C)C (centres unmarked) [Example I15, 5-(3,5,5,6,8,8-Hexamethyl-5,6,7,8-tetrahydro-naphthalen-2-yloxy)-furan-2-carboxylic acid N′-(5-methyl-thieno[2,3-d]pyrimidin-4-yI)-hydrazide] | 7.2 | 19
COc1cc(Cc2ccc(C(=O)NNc3cc(C)c4c(C)nn(C)c4n3)o2)c(OC)c(OC)c1 [Example J8, 5-(2,3,5-trimethoxybenzyl)-N′-(1,3,4-trimethyl-1H-pyrazolo[3,4-b]pyridin-6-yl)-2-furohydrazide] | 3890 | –
CCN(CC)C(=O)C1(c2ccc(C)c(Cc3ccc(C(=O)NNc4cc(C)c5c(C)nn(C)c5n4)o3)c2)CC1 [Example J20, N,N-diethyl-1-{4-methyl-3-[(5-{[2-(1,3,4-trimethyl-1H-pyrazolo[3,4-b]pyridin-6-yl)hydrazino]carbonyl}-2-furyl)methyl]phenyl} cyclopropanecarboxamide] | 1410 | –
Cc1cc2c(cc1Cc1ccc(C(=O)NNc3ncc(C(F)(F)F)cc3Cl)o1)C(C)(C)OC2(C)C [Example E3, N′-[3-chloro-5-(trifluoromethyl)pyridin-2-yl]-5-[(1,1,3,3,6-pentamethyl-1,3-dihydro-2-benzofuran-5-yl)methyl]-2-furohydrazide] | 840 | 91
Cc1ccccc1Oc1ccc(C(=O)NNc2cc(C)c3c(C)nn(C)c3n2)o1 [Example I4, 5-(2-Methylphenoxy)-N′-(1,3,4-trimethyl-1H-pyrazolo[3 ,4-b]pyridin-6-yl)-2-furohydrazide] | 980 | –
Cc1ccc(C)c(Cc2ccc(C(=O)NNc3cc(C)c4c(C)nn(C)c4n3)o2)c1 [Example J17] | 610 | –
Cc1cc2c(cc1Oc1ccc(C(=O)NNc3ncc(C(F)(F)F)cc3Cl)o1)C(C)(C)C(C)C2(C)C (centres unmarked) [Example M1, 5-(1,1,2,3,3,6-Hexamethyl-indan-5-yloxy)-furan-2-carboxylic acid N′-(chloro-trifluoromethyl-pyridin-2-yl)-hydrazide] | 23 | 11
